In the NIST ThermoML archive (doi:10.1016/j.jct.2018.02.022):
± gives the expanded uncertainty stated by the source.

Experiment: xn = mol fraction of the nth substance listed
Details: 92.3 kPa, Liquid; for viscosity: Concentric cylinders viscometry; for speed of sound: Frequency=3 MHz, Single path-length method; for mass density: Vibrating tube method

OCCOCCOCCO [triethylene glycol] + O
Details | mass density, 303.15 K [kg/m3] | mass density, 308.15 K [kg/m3] | speed of sound, 303.15 K [m/s] | speed of sound, 308.15 K [m/s] | viscosity, 303.15 K [mPa·s] | viscosity, 308.15 K [mPa·s]
x1 = 0.0101 | 1006.7 ± 3.2 | 1005.03 ± 3.2 | 1546.6 ± 1.8 | 1554.2 ± 1.8 | – | –
x1 = 0.0196 | 1016.05 ± 3.2 | 1014.27 ± 3.2 | 1577.2 ± 1.8 | 1582.2 ± 1.8 | – | –
x1 = 0.025 | 1021.12 ± 3.2 | 1019.05 ± 3.2 | – | – | 1.425 ± 0.2 | 1.265 ± 0.18
x1 = 0.029 | 1025.03 ± 3.2 | 1022.86 ± 3.2 | 1604.2 ± 1.8 | 1606.8 ± 1.8 | – | –
x1 = 0.0381 | 1032.5 ± 3.2 | 1030.16 ± 3.2 | 1626.5 ± 1.8 | 1627 ± 1.8 | – | –
x1 = 0.0489 | 1040.16 ± 3.2 | 1037.64 ± 3.2 | – | – | 2.135 ± 0.3 | 1.865 ± 0.26
x1 = 0.0496 | 1041.07 ± 3.3 | 1038.52 ± 3.2 | 1650.4 ± 1.8 | 1648.6 ± 1.8 | – | –
x1 = 0.0601 | 1048.1 ± 3.3 | 1045.38 ± 3.3 | 1668.4 ± 1.8 | 1664.8 ± 1.8 | – | –
x1 = 0.0689 | 1053.32 ± 3.3 | 1050.48 ± 3.3 | 1680.7 ± 1.8 | 1675.8 ± 1.8 | – | –
x1 = 0.0754 | 1056.69 ± 3.3 | 1053.78 ± 3.3 | – | – | 3.109 ± 0.44 | 2.68 ± 0.38
x1 = 0.0801 | 1059.3 ± 3.3 | 1056.32 ± 3.3 | 1693.4 ± 1.8 | 1687 ± 1.8 | – | –
x1 = 0.0905 | 1064.27 ± 3.3 | 1061.17 ± 3.3 | 1702.5 ± 1.8 | 1695 ± 1.8 | – | –
x1 = 0.0993 | 1068.24 ± 3.3 | 1065.07 ± 3.3 | – | – | 4.145 ± 0.58 | 3.561 ± 0.5
x1 = 0.0996 | 1068.21 ± 3.3 | 1065.01 ± 3.3 | 1708.8 ± 1.8 | 1700.4 ± 1.8 | – | –
x1 = 0.1479 | 1083.73 ± 3.3 | 1080.2 ± 3.3 | 1722.1 ± 1.8 | 1710.8 ± 1.8 | – | –
x1 = 0.15 | 1085.03 ± 3.3 | 1081.49 ± 3.3 | – | – | 6.732 ± 0.94 | 5.617 ± 0.79
x1 = 0.1993 | 1094.5 ± 3.3 | 1090.78 ± 3.3 | – | – | 9.456 ± 1.3 | 7.962 ± 1.1
x1 = 0.2004 | 1093.95 ± 3.3 | 1090.24 ± 3.3 | 1716.5 ± 1.8 | 1703.7 ± 1.8 | – | –
x1 = 0.2462 | 1099.63 ± 3.3 | 1095.85 ± 3.3 | 1705.3 ± 1.8 | 1691.9 ± 1.8 | – | –
x1 = 0.2526 | 1100.4 ± 3.3 | 1096.6 ± 3.3 | – | – | 12.39 ± 1.7 | 10.33 ± 1.4
x1 = 0.2998 | 1103.65 ± 3.3 | 1099.82 ± 3.3 | – | – | 14.86 ± 2.1 | 12.25 ± 1.7
x1 = 0.3004 | 1103.99 ± 3.3 | 1100.16 ± 3.3 | 1690.6 ± 1.8 | 1676.8 ± 1.8 | – | –
x1 = 0.3474 | 1106.59 ± 3.3 | 1102.74 ± 3.3 | 1678.1 ± 1.8 | 1664.2 ± 1.8 | – | –
x1 = 0.3539 | 1106.3 ± 3.3 | 1102.46 ± 3.3 | – | – | 17.36 ± 2.4 | 14.19 ± 2
x1 = 0.3948 | 1108.5 ± 3.3 | 1104.64 ± 3.3 | 1666.6 ± 1.9 | 1652.5 ± 1.9 | – | –
x1 = 0.4009 | 1108.18 ± 3.3 | 1104.33 ± 3.3 | – | – | 19.33 ± 2.7 | 15.72 ± 2.2
x1 = 0.4467 | 1110.04 ± 3.3 | 1106.18 ± 3.3 | 1655.4 ± 1.9 | 1641.2 ± 1.9 | – | –
x1 = 0.4492 | 1109.87 ± 3.3 | 1106.02 ± 3.3 | – | – | 21.06 ± 2.9 | 17.03 ± 2.4
x1 = 0.4992 | 1111.36 ± 3.3 | 1107.51 ± 3.3 | – | – | 22.58 ± 3.2 | 18.22 ± 2.6
x1 = 0.5021 | 1111.28 ± 3.3 | 1107.42 ± 3.3 | 1644.9 ± 1.9 | 1630.7 ± 1.9 | – | –
x1 = 0.548 | 1112.08 ± 3.3 | 1108.22 ± 3.3 | 1637.5 ± 1.9 | 1623.2 ± 1.9 | – | –
x1 = 0.5484 | 1112.51 ± 3.3 | 1108.65 ± 3.3 | – | – | 23.9 ± 3.3 | 19.23 ± 2.7
x1 = 0.5923 | 1112.73 ± 3.3 | 1108.87 ± 3.3 | 1631 ± 1.9 | 1616.6 ± 1.9 | – | –
x1 = 0.5996 | 1113.32 ± 3.3 | 1109.45 ± 3.3 | – | – | 24.96 ± 3.5 | 20.07 ± 2.8
x1 = 0.6442 | 1113.33 ± 3.3 | 1109.46 ± 3.3 | 1624.5 ± 1.9 | 1610.1 ± 1.9 | – | –
x1 = 0.6506 | 1113.74 ± 3.3 | 1109.87 ± 3.3 | – | – | 25.86 ± 3.6 | 20.77 ± 2.9
x1 = 0.701 | 1113.89 ± 3.3 | 1110.02 ± 3.3 | – | – | 26.76 ± 3.7 | 21.48 ± 3
x1 = 0.7095 | 1113.94 ± 3.3 | 1110.08 ± 3.3 | 1617.7 ± 1.9 | 1603.2 ± 1.9 | – | –
x1 = 0.7531 | 1114.3 ± 3.3 | 1110.43 ± 3.3 | 1613.4 ± 1.9 | 1598.8 ± 1.9 | – | –
x1 = 0.7567 | 1113.98 ± 3.3 | 1110.11 ± 3.3 | – | – | 27.55 ± 3.9 | 22.1 ± 3.1
x1 = 0.7859 | 1114.55 ± 3.3 | 1110.68 ± 3.3 | 1610.5 ± 2 | 1595.9 ± 2 | – | –
x1 = 0.8035 | 1114.18 ± 3.3 | 1110.31 ± 3.3 | – | – | 28.08 ± 3.9 | 22.51 ± 3.2
x1 = 0.8387 | 1114.87 ± 3.3 | 1111 ± 3.3 | 1606.6 ± 2 | 1591.9 ± 2 | – | –
x1 = 0.8406 | 1114.51 ± 3.3 | 1110.64 ± 3.3 | – | – | 28.48 ± 4 | 22.83 ± 3.2
x1 = 0.8981 | 1115.27 ± 3.3 | 1111.39 ± 3.3 | – | – | 28.88 ± 4 | 23.14 ± 3.2
x1 = 0.9031 | 1115.25 ± 3.3 | 1111.37 ± 3.3 | 1602 ± 2 | 1587.2 ± 2 | – | –
x1 = 0.9181 | 1115.31 ± 3.3 | 1111.42 ± 3.3 | 1601.3 ± 2 | 1586.5 ± 2 | – | –
x1 = 0.9344 | 1115.4 ± 3.3 | 1111.52 ± 3.3 | 1600.4 ± 2 | 1585.5 ± 2 | – | –
x1 = 0.9489 | 1115.8 ± 3.3 | 1111.91 ± 3.3 | – | – | 29.26 ± 4.1 | 23.46 ± 3.3
x1 = 0.9569 | 1115.5 ± 3.3 | 1111.62 ± 3.3 | 1599 ± 2 | 1584.2 ± 2 | – | –
x1 = 0.9782 | 1115.59 ± 3.3 | 1111.71 ± 3.3 | 1597.9 ± 2 | 1583 ± 2 | – | –
x1 = 1 | 1115.7 ± 3 | 1111.81 ± 3 | 1596.6 ± 2 | 1581.7 ± 2 | 29.59 ± 4.1 | 23.72 ± 3.3
